Assay [1] in a line: cells. The class given is functional, cell-based.
Assay [2] in a line: cells. Type of assay: functional, cell-based. This is another data set of the same source.
The next assay deals with INS1. Description: INS-1E survival protection against cytokine death – cell-based, luminescence, retest, dose response (AID 449756).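 Note: cell death triggered by IL-1 beta plus TNF-alpha plus IFN-gamma mixture; protective hits raise ATP signal compared with cytokine alone wells.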 Type of assay: functional. As to conditions: Rattus norvegicus.
Another assay relates to H9c2. Description: cells. The class given is functional, cell-based. As to conditions: Rattus norvegicus, H9c2, Myocardium.
The nature of assay [3]: bead-based luminescence quenchers, dual-tagged ARNT – biochemical, AlphaScreen, cherry-pick, artefact control for ARNT-TACC3 interaction inhibitor project, dose response (AID 651705).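 Note: AlphaScreen bead proximity signal that flags compounds interfering with the detection technology; potency reflects signal decrease which marks the compound as an assay artifact.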 The class given is functional. A general note: In Alpha technology, singlet oxygen from a donor bead excites a nearby acceptor bead.
Assay [4] has as its target T1, DNA repair and recombination protein RAD54-like (Homo sapiens, UniProt Q92698).
T1 sequence (Q92698 whole entry): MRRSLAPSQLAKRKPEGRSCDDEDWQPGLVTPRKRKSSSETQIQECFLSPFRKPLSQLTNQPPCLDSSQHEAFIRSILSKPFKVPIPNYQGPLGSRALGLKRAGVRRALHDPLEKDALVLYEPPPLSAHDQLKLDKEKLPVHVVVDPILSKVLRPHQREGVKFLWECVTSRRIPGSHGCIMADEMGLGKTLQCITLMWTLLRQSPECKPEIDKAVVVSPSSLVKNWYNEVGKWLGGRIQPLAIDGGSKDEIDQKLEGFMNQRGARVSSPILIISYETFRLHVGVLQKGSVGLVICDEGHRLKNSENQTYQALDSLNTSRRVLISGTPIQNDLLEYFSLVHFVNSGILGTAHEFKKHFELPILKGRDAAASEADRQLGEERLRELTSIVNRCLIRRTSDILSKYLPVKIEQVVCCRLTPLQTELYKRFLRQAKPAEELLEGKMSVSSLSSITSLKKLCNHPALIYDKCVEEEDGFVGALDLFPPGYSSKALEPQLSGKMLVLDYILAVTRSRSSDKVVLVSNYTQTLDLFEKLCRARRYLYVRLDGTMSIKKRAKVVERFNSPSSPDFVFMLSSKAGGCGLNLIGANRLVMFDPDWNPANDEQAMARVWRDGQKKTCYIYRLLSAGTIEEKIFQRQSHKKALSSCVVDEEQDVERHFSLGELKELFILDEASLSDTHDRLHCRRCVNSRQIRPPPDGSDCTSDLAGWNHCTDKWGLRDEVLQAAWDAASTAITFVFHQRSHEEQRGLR
The assay can be described thus: RAD54 Holliday junction migration blockers – biochemical, fluorescence, cherry-picked samples, dose series, confirmation (AID 651657). The class given is functional.

Assay [5] concerns the target T2, Microphthalmia-associated transcription factor (Homo sapiens, UniProt O75030).
T2 sequence (O75030 whole entry): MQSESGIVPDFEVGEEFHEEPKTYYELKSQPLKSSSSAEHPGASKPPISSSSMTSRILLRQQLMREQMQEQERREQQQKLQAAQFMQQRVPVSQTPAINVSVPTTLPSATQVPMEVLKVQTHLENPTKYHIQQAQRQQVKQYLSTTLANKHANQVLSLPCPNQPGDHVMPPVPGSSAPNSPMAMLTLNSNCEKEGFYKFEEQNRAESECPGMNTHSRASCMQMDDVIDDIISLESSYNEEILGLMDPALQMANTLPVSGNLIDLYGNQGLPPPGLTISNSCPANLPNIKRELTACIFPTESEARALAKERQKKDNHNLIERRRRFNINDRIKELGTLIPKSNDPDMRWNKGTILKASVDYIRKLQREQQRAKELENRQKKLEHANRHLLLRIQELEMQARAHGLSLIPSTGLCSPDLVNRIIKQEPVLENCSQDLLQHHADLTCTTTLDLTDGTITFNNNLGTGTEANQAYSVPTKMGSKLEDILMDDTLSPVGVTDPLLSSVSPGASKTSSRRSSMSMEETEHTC
Description: reducers of TRPM1 reporter luminescence, concentration series – cell-based, SK-MEL-5, cherry-picked, set 3, MITF inhibitor project, dose response (AID 493073).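 Note: SK-MEL-5 melanoma cells with luciferase driven by the MITF target TRPM1 promoter.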 The class given is functional.

Assay [6] has as its target T3, DNA repair protein RAD52 homolog (Homo sapiens, UniProt P43351).
T3 sequence (P43351 whole entry): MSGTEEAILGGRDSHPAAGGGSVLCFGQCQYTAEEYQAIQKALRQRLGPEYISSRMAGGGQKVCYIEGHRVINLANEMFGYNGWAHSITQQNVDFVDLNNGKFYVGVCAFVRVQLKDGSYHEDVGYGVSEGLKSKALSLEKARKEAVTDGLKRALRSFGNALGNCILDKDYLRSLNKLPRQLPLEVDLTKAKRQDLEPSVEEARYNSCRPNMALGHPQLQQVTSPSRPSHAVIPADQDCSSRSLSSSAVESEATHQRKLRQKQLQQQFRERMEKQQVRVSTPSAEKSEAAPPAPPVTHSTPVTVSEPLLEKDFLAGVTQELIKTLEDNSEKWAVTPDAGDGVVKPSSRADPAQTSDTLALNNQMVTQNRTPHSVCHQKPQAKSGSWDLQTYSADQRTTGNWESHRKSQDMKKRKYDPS
The class given is functional, biochemical.

Assay [7] deals with Streptococcus sp. 'group A'. Description: Streptococcus pyogenes SK(-)GAS viability under kanamycin – luminescence, BacTiterGlo, confirmation, counter-screen for streptokinase expression inhibitor project, dose response (AID 1900). The class given is functional, organism-based. A general note: A counterscreen serves to expose hits that act by an unwanted route or on another target.

Another assay deals with Streptococcus. Description: GAS UMAA2166 growth inhibition – luminescence, BacTiterGlo, counter-screen for streptokinase expression inhibitor project, dose response (AID 1915).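 Note: potency for reduction of bacterial viability or growth.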 Type of assay: functional, organism-based.
The target of assay [8] is T4, Low molecular weight phosphotyrosine protein phosphatase (Homo sapiens, UniProt P24666).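 Note: Dose-response confirmation assay measuring inhibition of LMPTP enzyme activity by fluorescence intensity read-out.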
T4 sequence (P24666 whole entry): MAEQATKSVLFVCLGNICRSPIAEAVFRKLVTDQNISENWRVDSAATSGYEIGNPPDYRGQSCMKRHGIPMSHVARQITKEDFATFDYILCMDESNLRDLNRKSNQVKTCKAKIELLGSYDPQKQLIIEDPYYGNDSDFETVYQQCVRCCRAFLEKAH
The class given is functional. As to conditions: read-out: IC50_Mean.

The nature of assay [9]: Luminescence Cell-Based Dose Retest to Confirm Inhibitors of Cancer Stem Cells. [Related pubchem assays (depositor defined):AID2717, AID2721]. Type of assay: functional. To be noted: Homo sapiens.
For assay [10], the target named is T5, Rac GTPase-activating protein 1 (Homo sapiens, UniProt Q9H0H5).
T5 sequence (Q9H0H5 whole entry): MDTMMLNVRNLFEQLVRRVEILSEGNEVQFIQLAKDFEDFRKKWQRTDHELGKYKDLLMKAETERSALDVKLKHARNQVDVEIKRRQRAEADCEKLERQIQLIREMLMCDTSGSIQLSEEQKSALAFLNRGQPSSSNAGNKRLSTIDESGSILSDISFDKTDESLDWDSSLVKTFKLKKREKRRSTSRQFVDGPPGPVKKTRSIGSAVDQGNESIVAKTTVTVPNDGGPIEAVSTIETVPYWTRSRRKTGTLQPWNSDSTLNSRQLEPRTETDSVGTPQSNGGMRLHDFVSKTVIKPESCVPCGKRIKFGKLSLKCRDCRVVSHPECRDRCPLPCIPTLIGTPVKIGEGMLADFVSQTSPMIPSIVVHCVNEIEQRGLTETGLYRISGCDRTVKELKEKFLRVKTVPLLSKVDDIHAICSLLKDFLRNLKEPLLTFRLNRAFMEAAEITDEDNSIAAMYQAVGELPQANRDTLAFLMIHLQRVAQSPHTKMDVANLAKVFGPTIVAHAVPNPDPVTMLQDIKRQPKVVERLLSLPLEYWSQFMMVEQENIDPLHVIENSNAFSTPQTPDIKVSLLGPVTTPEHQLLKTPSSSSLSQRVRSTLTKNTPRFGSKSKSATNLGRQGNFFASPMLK
The assay can be described thus: blockers of MgcRacGAP-driven Rac1 GTP hydrolysis – biochemical, ADP Hunter fluorescence, primary and confirmatory, confirmation (AID 624330). The class given is functional.

For assay [11], the target named is T6, Apoptotic protease-activating factor 1 (Homo sapiens, UniProt O14727).
T6 sequence (O14727 whole entry): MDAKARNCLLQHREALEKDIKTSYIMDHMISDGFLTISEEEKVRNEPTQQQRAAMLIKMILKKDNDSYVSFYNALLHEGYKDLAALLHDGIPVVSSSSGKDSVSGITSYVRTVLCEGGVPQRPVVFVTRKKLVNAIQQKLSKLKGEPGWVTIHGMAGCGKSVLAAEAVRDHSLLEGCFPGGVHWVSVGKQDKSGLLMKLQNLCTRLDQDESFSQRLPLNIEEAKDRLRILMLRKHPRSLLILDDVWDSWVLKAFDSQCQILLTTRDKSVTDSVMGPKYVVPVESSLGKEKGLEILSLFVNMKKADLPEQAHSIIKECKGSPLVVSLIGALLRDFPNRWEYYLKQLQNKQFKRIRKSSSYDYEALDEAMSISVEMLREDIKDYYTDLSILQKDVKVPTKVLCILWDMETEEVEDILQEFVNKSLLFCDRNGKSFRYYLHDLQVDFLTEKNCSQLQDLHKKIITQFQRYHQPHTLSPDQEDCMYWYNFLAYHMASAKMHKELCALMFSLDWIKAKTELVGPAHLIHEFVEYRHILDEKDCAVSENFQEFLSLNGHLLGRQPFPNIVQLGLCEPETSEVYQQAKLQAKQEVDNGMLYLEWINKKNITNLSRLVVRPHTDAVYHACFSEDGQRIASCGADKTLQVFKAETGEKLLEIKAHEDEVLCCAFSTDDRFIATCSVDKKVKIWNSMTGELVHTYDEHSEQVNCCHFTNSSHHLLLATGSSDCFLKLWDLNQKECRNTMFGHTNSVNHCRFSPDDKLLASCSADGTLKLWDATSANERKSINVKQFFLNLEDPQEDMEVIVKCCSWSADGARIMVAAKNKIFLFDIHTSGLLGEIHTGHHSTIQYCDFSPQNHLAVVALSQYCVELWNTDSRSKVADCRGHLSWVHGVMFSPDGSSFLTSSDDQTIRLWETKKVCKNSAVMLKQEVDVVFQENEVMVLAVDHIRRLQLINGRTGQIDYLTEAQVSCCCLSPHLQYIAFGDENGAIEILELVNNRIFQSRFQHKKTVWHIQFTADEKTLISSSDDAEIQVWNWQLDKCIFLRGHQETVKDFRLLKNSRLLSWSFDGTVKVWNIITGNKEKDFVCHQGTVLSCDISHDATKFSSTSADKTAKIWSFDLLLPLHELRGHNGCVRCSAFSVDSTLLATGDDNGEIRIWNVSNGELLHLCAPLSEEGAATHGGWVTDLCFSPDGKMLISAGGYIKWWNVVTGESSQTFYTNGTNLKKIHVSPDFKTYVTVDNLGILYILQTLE
Type of assay: functional.

Assay [12] has as its target T7, Hepatocyte nuclear factor 4-alpha (Homo sapiens, UniProt P41235).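 Note: biochemical luminescence-based dose-response counterscreen measuring inhibition of HNF4 dimerization, run alongside a screen for blockers of ABHD5–perilipin-5 interaction; split luciferase complementation of HNF4 fusion proteins in cell lysate measuring dimerization.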
T7 sequence (P41235 whole entry): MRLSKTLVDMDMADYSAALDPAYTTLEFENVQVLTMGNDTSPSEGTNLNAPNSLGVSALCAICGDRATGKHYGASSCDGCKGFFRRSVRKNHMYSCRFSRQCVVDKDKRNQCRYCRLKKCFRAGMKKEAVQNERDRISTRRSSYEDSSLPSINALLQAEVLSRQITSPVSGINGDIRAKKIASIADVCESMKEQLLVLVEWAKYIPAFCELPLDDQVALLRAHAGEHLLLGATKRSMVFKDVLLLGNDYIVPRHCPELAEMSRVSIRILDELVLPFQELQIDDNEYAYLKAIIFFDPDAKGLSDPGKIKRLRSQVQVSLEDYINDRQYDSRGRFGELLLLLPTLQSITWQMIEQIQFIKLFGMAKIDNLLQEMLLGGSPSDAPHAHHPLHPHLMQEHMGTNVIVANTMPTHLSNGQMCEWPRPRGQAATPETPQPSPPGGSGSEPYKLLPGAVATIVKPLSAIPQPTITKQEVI
Type of assay: functional, cell-based.

Another assay concerns the target Nonstructural protein 1 (Influenza A virus, UniProt Q194T2). The class given is functional, Influenza A virus (A/California/07/2009(H1N1)).

From ChEMBL document CHEMBL1201862, “PubChem BioAssay data set” (2004) come the findings set out here.

As usually defined, the EC50 is the concentration needed to bring the measured effect to its halfway point. For orientation: AC50 means the concentration at which the activity in the assay is half-maximal.

SMILES strings stand for the structures. Activity calls are given as the source filed them.

Sequence of Nonstructural protein 1 (Q194T2 whole entry): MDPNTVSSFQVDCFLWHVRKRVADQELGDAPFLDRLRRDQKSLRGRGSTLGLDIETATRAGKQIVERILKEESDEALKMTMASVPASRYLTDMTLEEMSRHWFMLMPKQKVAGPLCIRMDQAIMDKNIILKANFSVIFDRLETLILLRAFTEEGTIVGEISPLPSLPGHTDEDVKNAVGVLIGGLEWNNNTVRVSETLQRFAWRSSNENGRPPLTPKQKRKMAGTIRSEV

For the compound `CCc1ccc(NC(=O)CSc2ccc(-c3ccccn3)nn2)cc1`, the EC50 in the assay “cells [1]” is 160 µM (active); in the assay “cells [2]”, > 350 µM (not active). The results for the AC50 (with INS1; in assay [3]) were 9.24 µM (active) and 87 µM (active), respectively. In addition, in the assay with H9c2, the IC50 is > 79 µM (inactive).

As for `Cc1cccn2c(=O)c3cc(C(=O)NCc4ccccc4)c(=N)n(CCCN4CCOCC4)c3nc12`, the AC50 in [4] is 15.3 µM (active).

As to `CCN1CCN(c2ccc(Nc3ccnc4ccccc34)cc2)CC1`, the concentration at half-maximal activity (AC50) in [5] was 12.3 µM (active); in assay [4], 12.2 µM (active); in assay [6], 3.19 µM (active).

On to `CCOC(=O)c1c(CN2CCCCC2)n(C)c2cc(Br)c(OC)cc12`, for which the concentration at half-maximal activity (AC50) in [4] was 36.3 µM (active).

Regarding `CCn1cc(C(=O)O)c(=O)c2cc(F)c(N3CCN(S(=O)(=O)c4ccc5c(c4)OCCO5)CC3)cc21`, the EC50 in assay [7] is 2.84 µM (active); with Streptococcus, 5.81 µM (active). In [8], the IC50 was 5.48 µM (active).

With `Cc1cccc(NC(=O)CCC(=O)N/N=C/c2ccc(O)cc2O)c1`, the AC50 was 9.74 µM (active) in assay [9] and 118 µM (active) in assay [3]. The IC50 in assay [10] was 62.8 µM (active).

In the case of `CCOC(=O)c1cnn(-c2c(Cc3ccccc3)c(C)nc3c(-c4ccccc4)c(C)nn23)c1N`, the IC50 in [11] is 4 µM (active).

Regarding `O=C(CSc1nnc(-c2ccco2)o1)c1ccc[nH]1`, the IC50 in assay [8] is 38.1 µM (inactive).

With `CCCCCNC(=O)C(c1cc2ccccc2o1)n1c(=O)c(-c2ccco2)nc2ccccc21` (centres undefined), the IC50 in assay [12] was 2 µM (active).

On to `CC(C)n1cnc2c(NCc3ccccc3)cc(N[C@H](C)CO)cc21`, for which the AC50 in [9] was 6.67 µM (active); with INS1 it was 1.52 µM (active). Moreover, the IC50 is 61.9 µM (active) at Nonstructural protein 1 and 1.22 µM (active) in assay [11].

`NC(=O)C(C(=O)/C=C/c1ccc(Cl)cc1)=C1SCCS1`: in assay [12], the IC50 was 12.1 µM (inactive).
